One data set deals with NUK-21 strain. It is filed as cell-based, Myrmecridium flexuosum NUK-21.
The test system of data set [1] is lactose oxidase of the NUK-21 strain. Type of data set: biochemical, Myrmecridium flexuosum NUK-21.
Data set [2] shares this test system. Nature of the data set: Substrate specificity of lactose oxidase (OD500 nm peroxidase chromogen assay). Type of data set: biochemical, Myrmecridium flexuosum NUK-21. Here is the method:
Fifty mM of various buffers with different pH values were prepared, including CH3COOH—CH3COONa (pH 4.5-5.5), K2HPO4—NaH2PO4 (pH 5.5-8.0), Tris-HCl (pH 7.0-9.0), and Na2CO3—NaHCO3 (pH 9.0-11). Enzyme activity was determined by peroxidase chromogen method (Clin Chem, 1974; 20:470-475). The substrate, buffer and enzyme were premixed and reacted for 2 minutes, and then 4-aminoantipyrine (4-AA) coloring solution was added for reaction. A spectrophotometer was used to detect the absorbance of OD500 nm at room temperature (detection at every 15 seconds for a total of 90 seconds). The principle of the 4-AA assay is that the lactose oxidase oxidized lactose to lactobionic acid, which reduces dissolved oxygen to hydrogen peroxide, and the hydrogen peroxide, phenol, and 4-AA were catalyzed by the peroxidase to produce a red quinoneimine structure and show a stable signal at OD 500 nm.
The enzyme activity was defined as the enzyme concentration that produces 1 μmole hydrogen peroxide per minute. […] Calculation of enzyme activity: unit/ml=(ΔA500 nm/t)×(Vt/6.8)×(1/Ve)×n, in which ΔA500 nm:A500 nm variation in t minutes, 6.8: absorption coefficient of chromogenic material (mM^−1 cm^−1), Vt: total reaction volume, Ve: volume of enzyme was added, and n: fold of dilution of enzyme solution.
A spectrophotometer was used to detect the absorbance of OD500 nm at room temperature (detection at every 15 seconds for a total of 90 seconds), and the enzyme activity was determined.

Data set [3] shares this test system. In words: Effects of chemicals on enzyme activity (dissolved oxygen assay). Type of data set: biochemical, Myrmecridium flexuosum NUK-21. As to the method: The purified enzyme was added to A buffer containing 1 mM of various chemical solution and incubated in a water bath at 30° C. for 1 hour. Dissolved oxygen assay was used to determine the enzyme activity of lactose oxidase.

A further data set concerns carbohydrate oxidases. Conditions: cited from earlier work.
In data set [4] the test system is carbohydrate oxidases from different strains. As to conditions: cited from earlier work.
[5] abbreviates: metal ions 0.01%, 4% wheat bran medium, 30° C., 4 days.
The mark [6] stands for this setting: metal ions 1 mM, 30° C., 1 hour, 0.7 mM lactose.

Read-outs that look alike come from different tables or passages of the source.

For `O=[N+]([O-])[O-].[Ag+]` [AgNO3], in the data set with NUK-21 strain (setting [5]), the Enzyme activity is reported as 0.28 unit/ml. Also, the Relative activity in data set [1] (setting [6]) amounted to 107.9%.
Turning to `O=C(CO)[C@@H](O)[C@H](O)[C@H](O)CO` [Fructose], the Relative activity in data set [2] (0.7 mM substrate) and in data set [2] (7 mM substrate) was 0% in each case.
For `O=S(=O)([O-])[O-].O=S(=O)([O-])[O-].O=S(=O)([O-])[O-].[Al+3].[Al+3]` [Al2(SO4)3], the Enzyme activity in the data set on NUK-21 strain (setting [5]) amounted to 0.37 unit/ml.
For `O=S(=O)([O-])[O-].[Cu+2]` [CuSO4], the Enzyme activity in the data set on NUK-21 strain (setting [5]) was found to be 0.61 unit/ml. For the same molecule, the Relative activity in data set [1] (setting [6]) is given as 96.8%.
Turning to `O=C(CBr)c1ccc(Br)cc1` [2,4′-dibromoacetophenone], the Relative activity in data set [3] (chemical 1 mM, 30° C., 1 hour) amounted to 99%.
As for `OC[C@H]1O[C@@](CO)(O[C@H]2O[C@H](CO)[C@@H](O)[C@H](O)[C@H]2O)[C@@H](O)[C@@H]1O` [Sucrose], the Relative activity in data set [2] (0.7 mM substrate) and in data set [2] (7 mM substrate) was 0% each time.
The molecule `[Cl][Sn]([Cl])([Cl])[Cl]` [SnCl4] showed an Enzyme activity in the data set on NUK-21 strain (setting [5]) of 0.32 unit/ml.
`O=C(O)CN(CCN(CC(=O)O)CC(=O)O)CC(=O)O` [EDTA]: in data set [3], the Relative activity is recorded as 136.3% and the “effect on enzyme activity (in words)” value was “activated”.
With `O=C[C@H](O)[C@@H](O)[C@H](O[C@@H]1O[C@H](CO)[C@@H](O)[C@H](O)[C@H]1O)[C@H](O)CO` [Cellobiose], the values for the Relative activity in data set [2] (0.7 mM substrate) and in data set [2] (7 mM substrate) were 83.4% and 81.7%, respectively.
For `OC[C@H]1O[C@@H](O[C@H]2[C@H](O)[C@@H](O)C(O)O[C@@H]2CO)[C@H](O)[C@@H](O)[C@H]1O` (stereo partly shown) [Lactose], in that order: 100% and 100%.
Consider `O=C[C@H](O)[C@@H](O)[C@@H](O)[C@H](O)CO` [Galactose], for which the Relative activity in data set [2] (0.7 mM substrate) was determined as 0%; in data set [2] (7 mM substrate) it was 1.8%.
For `OC[C@@H](O)[C@@H](O)[C@H](O)[C@@H](O)CO` [Sorbitol], in that order: 0% and 0%.
For the molecule `OO` [H2O2], in data set [3] (chemical 1 mM, 30° C., 1 hour), the Relative activity came to 100%.
Consider `O=S(=O)([O-])[O-].[Fe+2]` [FeSO4], for which the Relative activity in data set [1] (setting [6]) turned out to be 61.1%; in data set [1] (metal ions 1 mM, 30° C., 1 hour, 0.7 mM lactose, listed as Fe^2+), 61.3%.
`[Ca+2].[Cl-].[Cl-]` [CaCl2] came in with an Enzyme activity in the data set on NUK-21 strain (setting [5]) of 0.20 unit/ml. Besides, the Relative activity in data set [1] (setting [6]) was 109.5%.
Turning to `c1cnc2c(c1)ccc1cccnc12` [1,10-phenanthroline], the Relative activity in data set [3] (chemical 1 mM, 30° C., 1 hour) is 98.8%.
On to `[Cl][Fe]([Cl])[Cl]` [FeCl3], for which the Enzyme activity in the data set on NUK-21 strain (setting [5]) was found to be 0.27 unit/ml. The Relative activity in data set [1] (setting [6]) came out at 103.2%.
Regarding `O=S(=O)([O-])[O-].[Ni+2]` [NiSO4], the Relative activity in data set [1] (setting [6]) stood at 100%.
In the data set on NUK-21 strain (setting [5]), `O=S(=O)([O-])[O-].[Mn+2]` [MnSO4] returned an Enzyme activity of 0.37 unit/ml.
In turn, `O=S(=O)([O-])[O-].[Na+].[Na+]` [Na2SO4] returned an Enzyme activity in the data set with NUK-21 strain (setting [5]) of 0.26 unit/ml.
As for `O=S(=O)([O-])[O-].[Zn+2]` [ZnSO4], in the data set on NUK-21 strain (setting [5]), the Enzyme activity worked out at 0.22 unit/ml.
Molecule `[Cl][Hg][Cl]` [HgCl2] had an Enzyme activity in the data set with NUK-21 strain (setting [5]) of 0.02 unit/ml. In addition, in data set [1] (setting [6]), the Relative activity was found to be 153.8%.
As to `O=S(=O)([O-])[O-].[K+].[K+]` [K2SO4], the Enzyme activity in the data set with NUK-21 strain (setting [5]) was 0.26 unit/ml.
Consider `CCN1C(=O)C=CC1=O` [N-ethylmaleimide], for which the “effect on enzyme activity (in words)” value in data set [3] (chemical 1 mM) is recorded as “activated”. Also, the Relative activity in data set [3] (chemical 1 mM, 30° C., 1 hour) is recorded as 139.5%.
As for `O=C(O)[C@H](O)[C@@H](O)[C@H](O[C@@H]1O[C@H](CO)[C@H](O)[C@H](O)[C@H]1O)[C@H](O)CO` [lactobionic acid], the Relative activity in data set [2] (0.7 mM substrate) and in data set [2] (7 mM substrate) was 0% each time.
Regarding `[Cl][Ni][Cl]` [NiCl2], in the data set on NUK-21 strain (setting [5]), the Enzyme activity amounted to 0.43 unit/ml.
Regarding `O=S(=O)([O-])[O-].O=S(=O)([O-])[O-].O=S(=O)([O-])[O-].[Fe+3].[Fe+3]` [Fe2(SO4)3], the Enzyme activity with NUK-21 strain (setting [5]) was determined as 0.25 unit/ml.
For the molecule `OC[C@H]1O[C@H](O[C@H]2[C@H](O)[C@@H](O)[C@H](O)O[C@@H]2CO)[C@H](O)[C@@H](O)[C@@H]1O` [Maltose], the Relative activity in data set [2] (0.7 mM substrate) was found to be 4.1%; in data set [2] (7 mM substrate), 24.8%.
In the case of `OC[C@@H](O)[C@H](O)[C@@H](O)CO` [Xylitol], the Relative activity in data set [2] (0.7 mM substrate) and in data set [2] (7 mM substrate) was 0% each time.
With `O=S(=O)(F)Cc1ccccc1` [PMSF], the Relative activity in data set [3] (chemical 1 mM, 30° C., 1 hour) amounted to 104.9%.
For the molecule `[Cl][Sn][Cl]` [SnCl2], the Relative activity in data set [1] (setting [6]) is reported as 61.3%; in data set [1] (metal ions 1 mM, 30° C., 1 hour, 0.7 mM lactose, listed as Sn^2+), 89.7%.
With `[N-]=[N+]=[N-].[Na+]` [NaN3], the “effect on enzyme activity (in words)” value in data set [3] (chemical 1 mM) is recorded as “activated”. Besides, in data set [3] (chemical 1 mM, 30° C., 1 hour), the Relative activity is 131.3%.
As to `O=S(=O)([O-])[O-].[Cd+2]` [CdSO4], the Enzyme activity in the data set on NUK-21 strain (setting [5]) worked out at 0.42 unit/ml. For the same molecule, the Relative activity in data set [1] (setting [6]) is given as 100%.
In turn, `[Cl][Pb][Cl]` [PbCl2] came in with an Enzyme activity in the data set on NUK-21 strain (setting [5]) of 0.29 unit/ml. Also, in data set [1] (setting [6]), the Relative activity was found to be 89.7%.
For the molecule `O=C[C@H](O)[C@@H](O)[C@H](O)CO` [Xylose], the Relative activity in data set [2] (0.7 mM substrate) and in data set [2] (7 mM substrate) was 0% each time.
Consider `[Cl-].[Cl-].[Co+2]` [CoCl2], for which, in the data set on NUK-21 strain, the Enzyme activity came out at 0.26 unit/ml. For the same molecule, the Relative activity in data set [1] stood at 110.2%.

B1: Glucooligosaccharide oxidase: carbohydrate oxidase from Acremonium strictum (protein, UniProt Q6PW77 26-499, looked up)
Glucooligosaccharide oxidase: NSINACLAAADVEFHEEDSEGWDMDGTAFNLRVDYDPAAIAIPRSTEDIAAAVQCGLDAGVQISAKGGGHSYGSYGFGGEDGHLMLELDRMYRVSVDDNNVATIQGGARLGYTALELLDQGNRALSHGTCPAVGVGGHVLGGGYGFATHTHGLTLDWLIGATVVLADASIVHVSETENADLFWALRGGGGGFAIVSEFEFNTFEAPEIITTYQVTTTWNRKQHVAGLKALQDWAQNTMPRELSMRLEINANALNWEGNFFGNAKDLKKILQPIMKKAGGKSTISKLVETDWYGQINTYLYGADLNITYNYDVHEYFYANSLTAPRLSDEAIQAFVDYKFDNSSVRPGRGWWIQWDFHGGKNSALAAVSNDETAYAHRDQLWLWQFYDSIYDYENNTSPYPESGFEFMQGFVATIEDTLPEDRKGKYFNYADTTLTKEEAQKLYWRGNLEKLQAIKAKYDPEDVFGNVVSVEPIA
The term Km denotes the concentration of substrate that gives half-maximal velocity. Turning to B1, the “optimum pH” value with carbohydrate oxidases was 10. In addition, the Substrate specificity was 120% in data set [4] (cellobiose) and 100% in data set [4] (lactose). Also, the values for the Km in data set [4] (substrate cellobiose) and in data set [4] (substrate lactose) were 120 µM and 380 µM, respectively.

The record behind these values is patent publication US10683487B2, “Myrmecridium flexuosum NUK-21, novel lactose oxidase isolated from Myrmecridium flexuosum NUK-21, and method for conversion of lactose into lactobionic acid by novel lactose oxidase” (NATIONAL UNIVERSITY OF KAOHSIUNG, priority 2017, dated 2020).
